One series relates to H460 cells. In words: Cytotoxicity of bendamustine composition comprising SBECD and LMWP, WST-1 (Example 24). The class given is cell-based. The conditions noted are these: Homo sapiens, NCI-H460, 72 h, read-out: drug cytotoxicity (WST-1), Table 8. On the procedure: (§1) RPMI8226, H69, MDA-MB-231, and H460 cells were maintained in appropriate medium, containing 10% FBS and antibiotics. 24 h after plating, bendamustine, and bendamustine formulated in SBECD/LMWP (40 mg/ml BM in 20% SBECD, 1% LMWP) were added in different concentrations to cell cultures and cells were grown for three days. The drug cytotoxicity was evaluated using WST-1 procedure.
(Formazan colour is commonly taken as a measure of viable cells.)

In a further series the test system is H69 cells. Described as above. The class given is cell-based. As to conditions: Homo sapiens, NCI-H69, 72 h, read-out: drug cytotoxicity (WST-1), Table 8. On the procedure: as §1
A further series deals with MDA-MB-231 cells. The series is described as above. The class given is cell-based. The conditions noted are these: Homo sapiens, MDA-MB-231, 72 h, read-out: drug cytotoxicity (WST-1), Table 8. As to the method:
as §1

Another series relates to RPMI8226 cells. The series is described as above. In kind it is cell-based. As to conditions: Homo sapiens, RPMI-8226, 72 h, read-out: drug cytotoxicity (WST-1), Table 8. On the procedure:
as §1

The test system of series [1] is Human breast carcinoma (MDA-MB 231) subcutaneous solid tumours. In words: Human breast carcinoma MDA-MB 231 s.c. solid tumours in nude mice (Example 27). In kind it is in vivo, balb/c nu/nu mice. As to conditions: 35 mg/kg. As to the method: balb/c mice aged 5 to 6 weeks were purchased from Charles River Canada Inc. The animals were kept 5 per cage with an air filter cover under light (12 light/dark cycle, light on at 6 H00) and temperature (22° C.±1° C.)-controlled environment. All manipulations of animals were performed under a sterilized laminar hood. The animals had ad libitum access to Purina mouse chow (Pro Lab PMH 4018, Trademark of Agway, Syracuse, N.Y.) and water. These animal studies were conducted according to the “Guidelines for Care and Use of Experimental Animals”. Tumor Cell Culture: Human breast cancer cells MDA-MB 231 were cultured in the appropriated culture medium. The cells were harvested in their logarithmic growth phase for the preparation of tumor implantation. Tumor Implantation: Human tumor or myeloma cells (2.5 to 5.0×10^6 cells) were implanted subcutaneously in 0.200 mL of medium containing 30% Matrigel on the two flanks of balb/c nu/nu mice through a 1 to 2 cm long 20-gauge needle. Treatments: 2 to 3 weeks after tumor cell implantation, animals that developed s.c. solid tumors were selected and divided into several homogeneous groups (n=5 animals per group or dose) with respect to tumor size (0.5 to 0.8 cm in diameter). The treatments were performed next day. The animals were dosed with the following dosing solutions. Control: (0.9%, NaCl) Compositions:
non-formulated Bendamustine, (35 mg/kg)
Bendamustine (35 mg/kg) in 40% SBECD, 1% protamine sulfate (formulated BM)
Subcutaneous solid tumor measurements were performed on the day of first injection and at 3- to 4-day intervals thereafter. The two largest perpendicular diameters of each tumor were measured with calipers and tumor sizes were estimated using the formula: TV=L×W/2 where TV: tumor volume; L: length; W: width. The body weights of animals were also noted.

As for `Cn1c(CCCC(=O)O)nc2cc(N(CCCl)CCCl)ccc21` [BM, 4-[5-[bis(2-chloroethyl)amino]-1-methylbenzimidazol-2-yl]butanoic acid], the IC50 in the series with H460 cells amounted to 601 µM; with H69 cells it was 254 µM; in the series with MDA-MB-231 cells, 600 µM; with RPMI8226 cells, 117 µM. For the same compound, the “Tumor weight after treatment, Average (SEM)” value is on record as 0.237 (0.008) g in series [1] (day 0); 0.250 (0.028) g in series [1] (day 2); 0.294 (0.027) g in series [1] (day 4); 0.313 (0.030) g in series [1] (day 7); 0.349 (0.038) g in series [1] (day 9); 0.417 (0.046) g in series [1] (day 11). Also, in series [1] (day 14), the “Tumor weight after treatment, Average (SEM)” value is reported as 0.537 (0.055) g. In series [1] (day 14), the “Inhibition % vs control (on day 14)” value amounted to 70.2%. Moreover, the “Tumor volume on day 14” value in series [1] (day 14) was 0.54 ± 0.06 g. In addition, in series [1] (nude mice with MDA-MB 231 tumours), the “Body weight on day 14” value is on record as 18.1 ± 0.39 g.

The values above are taken from US8703964B2, “Bendamustine cyclopolysaccharide compositions” (Supratek Pharma Inc., priority 2009, dated 2014).
